From PMC10977697 (PLOS ONE, 2024) come the findings set out here.

Where no end group is shown, it is not given here.

This assay deals with EpCAM. Briefly: Spot phage ELISA, EpCAM. The assay is classed as binding, human. The note with it: spot phage ELISA signal-to-noise on EpCAM.
On to “GCPRILMRCKQDSDCQPVCG (disulfide (positions not given here)) [EpCAM EET I-II 5]”, for which the S/N is 22.8.

Consider “GPTQSHYGQCGGKGYFGIRCSGTTCQMVTYKPSQCLPGAS (disulfide (positions not given here)) [EpCAM CBD 33]”, for which the S/N was 15.1.

In turn, “GCPRILMRCKQDSDCQAFCG (disulfide (positions not given here)) [EpCAM EET I-II 23]” returned a S/N of 18.7.

In the case of “GPTQSHYGQCGGSGYYGYIVCSGTTCQFKPSGRSQCLPGAS (disulfide (positions not given here)) [EpCAM CBD 81]”, the S/N worked out at 7.0.

The sequence “GPTQSHYGQCGGKGYFGAIVCSGTTCQSTQKYASQCLPGAS (disulfide (positions not given here)) [EpCAM CBD 62]” registered a S/N of 8.8.

As to “GPTQSHYGQCGGTGYFGMMRCSGTTCQHVFLERSQCLPGAS (disulfide (positions not given here)) [EpCAM CBD 53]”, the S/N came out at 9.5.

Sequence “GPTQSHYGQCGGWGYQGWAICSGTTCQAQLSHKSQCLPGAS (disulfide (positions not given here)) [EpCAM CBD 83]” had a S/N of 6.8.

Sequence “GPTQSHYGQCGGPGYVGSIMCSGTTCQFQYIPTSQCLPGAS (disulfide (positions not given here)) [EpCAM CBD 23]” showed a S/N of 16.9.

In the case of “GPTQSHYGQCGGFGYTGAIGCSGTTCQHVKYMRSQCLPGAS (disulfide (positions not given here)) [EpCAM CBD 7]”, the S/N was found to be 22.6.

“GCIKNNLRCKQDSDCLAGCVCWYDAACG (disulfide (positions not given here)) [EpCAM EET I-II 32]”: the S/N came out at 16.9.

The sequence “GPTQSHYGQCGGPGYFGXVVCSGTTCQFAHIHRSQCLPGAS (disulfide) [EpCAM CBD 85]” displayed a S/N of 6.6.

In the case of “GPTQSHYGQCGGTGYHGVMLCSGTTCQLWAHPLSQCLPGAS (disulfide (positions not given here)) [EpCAM CBD 11]”, the S/N was found to be 20.6.

The sequence “GCPRILMRCKQDSDCLAGCVCPGNILCG (disulfide (positions not given here)) [EpCAM EET I-II 29]” had a S/N of 17.9.

As to “GPTQSHYGQCGGPGYYGAIVCSGTTCQHTFITHSQCLPGAS (disulfide (positions not given here)) [EpCAM CBD 57]”, the S/N came to 9.3.

Take “GPTQSHYGQCGGGGYHGIICSGTTCQSREVVRSQCLPGAS (disulfide (positions not given here)) [EpCAM CBD 84]”: the S/N came out at 6.7.

The sequence “GPTQSHYGQCGGSGYWGAIACSGTTCQMVKLPYSQCLPGAS (disulfide (positions not given here)) [EpCAM CBD 69]” displayed a S/N of 8.5.

Sequence “GPTQSHYGQCGGPGYQGFIVCSGTTCQYRQPSESQCLPGAS (disulfide (positions not given here)) [EpCAM CBD 2]” yielded a S/N of 24.7.

“GCPRSHVRVFFSCKQDSDCLAGCVCFQVVC (disulfide (positions not given here)) [EpCAM EET I-II 31]” had a S/N of 17.4.

Turning to “GPTQSHYGQCGGSGYKGVIVCSGTTCQYKIMTMSQCLPGAS (disulfide (positions not given here)) [EpCAM CBD 44]”, the S/N stood at 11.1.

“GPTQSHYGQCGGDGYHGAIHCSGTTCQYVMMNRSQCLPGAS (disulfide (positions not given here)) [EpCAM CBD 59]” had a S/N of 8.9.

In turn, “GCPRILMRCKQDSDCEAICG (disulfide (positions not given here)) [EpCAM EET I-II 8]” showed a S/N of 21.9.

For “GPTQSHYGQCGGLGYLGMMQCSGTTCQYIQREISQCLPGAS (disulfide (positions not given here)) [EpCAM CBD 29]”, the S/N was determined as 15.7.

“GPTQSHYGQCGGKGYRGAIRCSGTTCQYIREFTSQCLPGAS (disulfide (positions not given here)) [EpCAM CBD 43]” came in with a S/N of 11.4.
